Experimental data reported in publication PMC12799362, “The effect of dimeric bisbenzimidazoles on the activity of DNA repair enzymes TDP1, TDP2, PARP1 and PARP2” (Vavilov Journal of Genetics and Breeding, 2025).

How the values were obtained:
[1] = biological target: T1, tyrosyl-DNA phosphodiesterase 1 (TDP1) (Homo sapiens, UniProt Q9NUW8); experiment: Real-time fluorescent detection of TDP1 activity (BHQ1 cleavage from 3′-end of single-stranded FAM oligonucleotide); type: biochemical; details: recombinant TDP1 1.5 nM, 50 nM single-stranded oligonucleotide, 26 °C; mean ± SD, at least three replicates
T1 construct: made in house; host or cells: E. coli
Description: (§1) Recombinant human proteins tyrosyl-DNA phosphodiesterase 1 (TDP1) and tyrosyl-DNA phosphodiesterase 2 (TDP2) were expressed in the E. coli system, poly(ADP-ribose) polymerase 1 (PARP1) and poly(ADP-ribose) polymerase 2 (PARP2) were expressed in insect cells using a baculovirus expression system and purified as described in (Sukhanova et al., 2004; Sherstyuk et al., 2019; Dyrkheeva et al., 2020, 2021).
Determination of TDP1 activity. The reaction mixture (200 μl) for real-time fluorescent detection of TDP1 enzyme activity (Zakharenko et al., 2015) contained TDP1 reaction buffer (50 mM Tris-HCl, pH 8.0, 50 mM NaCl, and 7 mM β-mercaptoethanol), 50 nM oligonucleotide 5′-FAM-AAC GTC AGG GTC TTC C-BHQ1-3′, the test compound at various concentrations, and TDP1 at a final concentration of 1.5 nM. The reaction mixtures were incubated at a constant temperature of 26 °C in a POLARstar OPTIMA microplate fluorometer (BMG LABTECH, GmbH, Ortenberg, Germany). Fluorescence intensity (Ex485/Em520 nm) was measured every minute for 10 min. Mean values of half-maximal inhibitory concentration (IC50 – the concentration of the compound that inhibited 50 % of enzyme activity compared to the untreated control well containing only enzyme and substrate) were determined using a dose-response curve of the fluorescence signal level versus inhibitor concentration and calculated using MARS Data Analysis 2.0 (BMG LABTECH). Kinetic curves were obtained in at least three independent experiments and statistically processed in OriginPro 8.6.0 (OriginLab, Northampton, Massachusetts, USA).
The third group of compounds includes derivatives of the monomeric compound MB2Py(Ac), which is an isosteric analog of MB3, due to the fact that the pyrrolecarboxamide fragment contained in its structure can act as a hydrogen atom donor at the carboxamide nitrogen for hydrogen bond formation, in a position analogous to benzimidazole. Dimeric derivatives are represented by the DB2Py(n) series containing n-alkyldicarboxylic acids as a linker. This series is represented by a set of compounds containing 1, 3, 4, 5, 7, 9, and 11 methylene units, which allowed for a more accurate assessment of the dependence of the inhibitory activity of compounds on spacer length. The DB2Py(n) series differs from the DB3(n) series by the presence, in addition to the bisbenzimidazole structure, of a pyrrolecarboxamide structure, which is a fragment of the AT-specific antibiotic netropsin.Using the real-time fluorescence analysis method, halfmaximal inhibitory concentration (IC50) values of the studied compounds (see the Table) were obtained in the reaction of BHQ1 cleavage from the 3′-end of the oligonucleotide by TDP1, which led to an increase in FAM fluorescence at the 5′-end of the chain (Zakharenko et al., 2015). It should also be noted that a single-stranded oligonucleotide was used as substrate to exclude the binding of dimeric bisbenzimidazoles as minor-groove ligands to the DNA substrate and direct their action toward the enzymatic target.

[2] = biological target: T2, tyrosyl-DNA phosphodiesterase 2 (TDP2) (Homo sapiens, UniProt O95551); experiment: TDP2 activity, removal of 5′-tyrosine from oligonucleotide substrate, denaturing PAGE; type: biochemical; details: inhibitor 500 μM, TDP2 200 nM, substrate 100 nM, 10 min, 37 °C; mean ± SD; read-out: TDP2 % of residual activity (500 μM)
T2 construct: made in house; host or cells: E. coli
T2 sequence (O95551 1-362): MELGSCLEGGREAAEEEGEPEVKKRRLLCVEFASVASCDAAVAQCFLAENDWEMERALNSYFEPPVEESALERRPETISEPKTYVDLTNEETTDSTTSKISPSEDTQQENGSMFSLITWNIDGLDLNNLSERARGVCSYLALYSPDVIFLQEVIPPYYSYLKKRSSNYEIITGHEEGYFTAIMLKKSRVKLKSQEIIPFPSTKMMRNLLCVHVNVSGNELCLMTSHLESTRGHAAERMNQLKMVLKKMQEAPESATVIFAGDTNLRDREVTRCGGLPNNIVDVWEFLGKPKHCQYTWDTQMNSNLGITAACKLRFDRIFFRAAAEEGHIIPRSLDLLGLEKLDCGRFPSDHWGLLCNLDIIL
Excerpt: as §1
Determination of TDP2 activity. For determination of TDP2 enzyme activity, an oligonucleotide 5′-tyrosine-AAC GTC AGG GTC TTC C-FAM-3′ containing a 6-FAM label at the 3′-end and an L-tyrosine residue attached via the phenolic OH group to the 5′-terminal phosphate was used as substrate, synthesized at the Russian-French-Japanese Laboratory of Bionanotechnology of Novosibirsk State University as described in (Dyrkheeva et al., 2021). The substrate at a concentration of 100 nM was incubated with TDP2 at a concentration of 200 nM in the absence or presence of inhibitor (500 μM) for 10 min at 37 °C in buffer containing 50 mM Tris-HCl, pH 8.0, 50 mM NaCl, 7 mM β-mercaptoethanol (Dyrkheeva et al., 2021). The reaction was stopped by addition of PAGE loading buffer (TBE, 10 % formamide, 7 M urea, 20 mM EDTA, 0.1 % xylene cyanol, and 0.1 % bromophenol blue). The samples were then heated at 90 °C for 5 min. The enzymatic reaction products were separated by electrophoresis in 20 % denaturing PAGE with 7 M urea at an acrylamide to bisacrylamide ratio of 19:1. A high-resolution Typhoon FLA 9500 laser scanner (GE Healthcare, Chicago, Illinois, USA) was used for gel scanning and visualization, and the data were analyzed using QuantityOne 4.6.7 software (Bio- Rad Laboratories, Inc., Hercules, California, USA). At least three independent experiments were performed, and statistical processing was carried out using OriginPro 8.6.0 (OriginLab, Northampton, Massachusetts, USA).
To study the effect of the studied compounds on TDP2 activity, we tested the ability of this enzyme to remove the tyrosine residue from the 5′-end of the oligonucleotide substrate in the absence and presence of inhibitors, as described in (Dyrkheeva et al., 2021).

[3] = biological target: T3, poly(ADP-ribose) polymerase 1 (PARP1) (Homo sapiens, UniProt P09874); experiment: PARP1 auto-poly(ADP-ribosyl)ation with [32P]-NAD+; type: biochemical; details: compound 500 μM, PARP1 200 nM, 0.3 mM [32P]-NAD+, 2 min, 37 °C; mean ± SD; read-out: PARP1 % of residual activity (500 μM)
T3 construct: made in house; host or cells: insect cells (baculovirus expression system)
Excerpt: as §1
(§2) Determination of PARP1 and PARP2 activity. For determination of PARP1 and PARP2 enzyme activity in the presence and absence of test compounds, radiolabeled [32P]-NAD⁺ was synthesized from α-[32P]-ATP according to the protocol (Sherstyuk et al., 2019). The auto-poly(ADPribosyl) ation reaction was performed in buffer for PARP1: 50 mM Tris-HCl, pH 8.0, 10 mM MgCl2, 150 mM NaCl, and 7 mM β-mercaptoethanol, as well as 2 A260 units/ml activated DNA, 0.3 mM [32P]-NAD⁺ at 37 °C. The reaction was initiated by addition of PARP1 to 200 nM and carried out for 2 min
(§3) The buffer for PARP2 contained: 50 mM Tris-HCl, pH 8.0, 3 mM spermine, 150 mM NaCl, and 7 mM β-mercaptoethanol, 2 A260 units/ml activated DNA, 0.6 mM [32P]-NAD⁺ at 37 °C. The reaction was initiated by addition of PARP2 to 600 nM, and the reaction mixtures were incubated for 5 min. The reaction was stopped by placing 5 μl aliquots on Whatman 1 paper filters impregnated with 5 % trichloroacetic acid (TCA). The filters were washed with 5 % TCA four times and air-dried after removal of TCA with 90 % ethanol. The incorporation of the radioactive label into the reaction product was calculated using a Typhoon FLA 9500 scanner (GE Healthcare, Chicago, Illinois, USA). At least three independent experiments were performed.

[4] = test system: poly(ADP-ribose) polymerase 2 (PARP2); experiment: PARP2 auto-poly(ADP-ribosyl)ation with [32P]-NAD+; type: biochemical, human; details: compound 500 μM, PARP2 600 nM, 0.6 mM [32P]-NAD+, 5 min, 37 °C; mean ± SD
Excerpt: as §1, §2, §3

T1 sequence (Q9NUW8 whole entry): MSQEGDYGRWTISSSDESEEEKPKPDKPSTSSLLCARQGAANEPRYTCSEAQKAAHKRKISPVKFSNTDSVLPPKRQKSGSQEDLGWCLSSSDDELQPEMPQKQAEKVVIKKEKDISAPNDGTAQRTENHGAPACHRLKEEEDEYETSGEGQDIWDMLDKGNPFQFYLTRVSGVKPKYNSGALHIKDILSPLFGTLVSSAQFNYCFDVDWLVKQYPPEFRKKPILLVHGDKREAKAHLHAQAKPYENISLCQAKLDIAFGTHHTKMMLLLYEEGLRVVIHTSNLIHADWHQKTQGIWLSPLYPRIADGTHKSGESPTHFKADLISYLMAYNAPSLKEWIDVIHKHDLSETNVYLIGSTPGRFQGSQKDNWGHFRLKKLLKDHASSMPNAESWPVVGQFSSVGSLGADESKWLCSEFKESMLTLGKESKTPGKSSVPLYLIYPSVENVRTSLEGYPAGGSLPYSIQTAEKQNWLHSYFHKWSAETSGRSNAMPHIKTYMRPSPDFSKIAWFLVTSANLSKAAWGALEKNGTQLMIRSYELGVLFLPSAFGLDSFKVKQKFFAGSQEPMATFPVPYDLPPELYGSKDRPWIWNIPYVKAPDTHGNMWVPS
T3 sequence (P09874 whole entry): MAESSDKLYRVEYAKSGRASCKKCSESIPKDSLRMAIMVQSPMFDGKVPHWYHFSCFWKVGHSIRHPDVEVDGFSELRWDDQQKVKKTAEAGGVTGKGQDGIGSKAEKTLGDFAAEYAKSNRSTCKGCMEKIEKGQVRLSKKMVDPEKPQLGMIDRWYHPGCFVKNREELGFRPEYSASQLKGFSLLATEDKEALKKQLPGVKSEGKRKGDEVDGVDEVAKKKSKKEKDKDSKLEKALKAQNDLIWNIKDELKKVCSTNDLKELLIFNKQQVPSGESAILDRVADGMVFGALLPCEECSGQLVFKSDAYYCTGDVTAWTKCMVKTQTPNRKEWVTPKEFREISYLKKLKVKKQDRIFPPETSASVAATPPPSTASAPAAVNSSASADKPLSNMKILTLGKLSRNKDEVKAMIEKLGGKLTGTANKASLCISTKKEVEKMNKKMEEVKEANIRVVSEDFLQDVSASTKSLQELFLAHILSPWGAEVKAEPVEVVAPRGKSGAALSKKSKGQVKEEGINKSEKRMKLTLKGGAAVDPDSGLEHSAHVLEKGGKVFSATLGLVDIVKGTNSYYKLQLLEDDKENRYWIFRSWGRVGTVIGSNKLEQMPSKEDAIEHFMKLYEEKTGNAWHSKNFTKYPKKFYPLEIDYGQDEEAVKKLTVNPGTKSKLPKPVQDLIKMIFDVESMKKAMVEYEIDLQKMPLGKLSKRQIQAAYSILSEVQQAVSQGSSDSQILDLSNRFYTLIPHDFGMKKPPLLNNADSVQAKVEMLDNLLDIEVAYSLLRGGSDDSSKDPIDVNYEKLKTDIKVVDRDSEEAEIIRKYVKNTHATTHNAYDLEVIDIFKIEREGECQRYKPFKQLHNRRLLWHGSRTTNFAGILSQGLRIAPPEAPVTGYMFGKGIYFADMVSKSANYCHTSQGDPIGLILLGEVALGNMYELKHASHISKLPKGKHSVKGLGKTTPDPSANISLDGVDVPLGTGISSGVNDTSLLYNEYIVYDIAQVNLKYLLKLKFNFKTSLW

| Compound | IC50 [1] [nM] | remaining activity at 500 µM [2] [%] | remaining activity at 500 µM [3] [%] | PARP2 % of residual activity (500 μM) [4] |
| --- | --- | --- | --- | --- |
| CCCn1cc(NC(C)=O)cc1-c1nc2ccc(-c3nc4ccc(N5CCN(C)CC5)cc4[nH]3)cc2[nH]1 [MB2Py(Ac)] | 5000 ± 2000 | ~100 | ~100 | ~ 100% |
| CN1CCN(c2ccc3nc(-c4ccc5nc(-c6ccc7nc(CNC(=O)CN8CCN(CC(=O)NCc9nc%10ccc(-c%11nc%12ccc(-c%13nc%14ccc(N%15CCN(C)CC%15)cc%14[nH]%13)cc%12[nH]%11)cc%10[nH]9)CC8)[nH]c7c6)[nH]c5c4)[nH]c3c2)CC1 [DB3P(1)] | 100 ± 50 | ~100 | 70 ± 12 | ~ 100% |
| CN1CCN(c2ccc3nc(-c4ccc5nc(-c6ccc7nc(CNC(=O)CC(=O)NCc8nc9ccc(-c%10nc%11ccc(-c%12nc%13ccc(N%14CCN(C)CC%14)cc%13[nH]%12)cc%11[nH]%10)cc9[nH]8)[nH]c7c6)[nH]c5c4)[nH]c3c2)CC1 [DB3(1)] | > 50000 | 70 ± 6 | 55 ± 13 | ~ 100% |
| CN1CCN(c2ccc3nc(-c4ccc5nc(-c6ccc7nc(CNC(=O)CCCN8CCN(CCCC(=O)NCc9nc%10ccc(-c%11nc%12ccc(-c%13nc%14ccc(N%15CCN(C)CC%15)cc%14[nH]%13)cc%12[nH]%11)cc%10[nH]9)CC8)[nH]c7c6)[nH]c5c4)[nH]c3c2)CC1 [DB3P(3)] | 200 ± 50 | ~100 | 47 ± 14 | ~ 100% |
| CN1CCN(c2ccc3nc(-c4ccc5nc(-c6ccc7nc(CNC(=O)CCCCCCCCCC(=O)NCc8nc9ccc(-c%10nc%11ccc(-c%12nc%13ccc(N%14CCN(C)CC%14)cc%13[nH]%12)cc%11[nH]%10)cc9[nH]8)[nH]c7c6)[nH]c5c4)[nH]c3c2)CC1 [DB3(9)] | > 50000 | ~100 | ~100 | ~ 100% |
| CN1CCN(c2ccc3nc(-c4ccc5nc(CN)[nH]c5c4)[nH]c3c2)CC1 [MB2] | 2000 ± 1000 | ~100 | ~100 | ~ 100% |
| CN1CCN(c2ccc3nc(-c4ccc5nc(-c6ccc7nc(CNC(=O)CCN8CCN(CCC(=O)NCc9nc%10ccc(-c%11nc%12ccc(-c%13nc%14ccc(N%15CCN(C)CC%15)cc%14[nH]%13)cc%12[nH]%11)cc%10[nH]9)CC8)[nH]c7c6)[nH]c5c4)[nH]c3c2)CC1 [DB3P(2)] | 110 ± 10 | ~100 | 40 ± 5 | ~ 100% |
| CN1CCN(c2ccc3nc(-c4ccc5nc(-c6ccc7nc(CNC(=O)CCCCN8CCN(CCCCC(=O)NCc9nc%10ccc(-c%11nc%12ccc(-c%13nc%14ccc(N%15CCN(C)CC%15)cc%14[nH]%13)cc%12[nH]%11)cc%10[nH]9)CC8)[nH]c7c6)[nH]c5c4)[nH]c3c2)CC1 [DB3P(4)] | 150 ± 30 | ~100 | 48 ± 15 | ~ 100% |
| CN1CCN(c2ccc3nc(-c4ccc5nc(CNC(=O)CCN6CCN(CCC(=O)NCc7nc8ccc(-c9nc%10ccc(N%11CCN(C)CC%11)cc%10[nH]9)cc8[nH]7)CC6)[nH]c5c4)[nH]c3c2)CC1 [DB2P(2)] | 9000 ± 3000 | 44 ± 11 | 51 ± 15 | 80 ± 20% |
| CCCn1cc(NC(=O)CCCCCCCCCC(=O)Nc2cc(-c3nc4ccc(-c5nc6ccc(N7CCN(C)CC7)cc6[nH]5)cc4[nH]3)n(CCC)c2)cc1-c1nc2ccc(-c3nc4ccc(N5CCN(C)CC5)cc4[nH]3)cc2[nH]1 [DB2Py(9)] | 300 ± 80 | ~100 | ~100 | ~ 100% |
| CN1CCN(c2ccc3nc(-c4ccc5nc(-c6ccc7nc(CNC(=O)CCCCCC(=O)NCc8nc9ccc(-c%10nc%11ccc(-c%12nc%13ccc(N%14CCN(C)CC%14)cc%13[nH]%12)cc%11[nH]%10)cc9[nH]8)[nH]c7c6)[nH]c5c4)[nH]c3c2)CC1 [DB3(5)] | > 50000 | 65 ± 10 | 62 ± 16 | ~ 100% |
| CN1CCN(c2ccc3nc(-c4ccc5nc(CNC(=O)CN6CCN(CC(=O)NCc7nc8ccc(-c9nc%10ccc(N%11CCN(C)CC%11)cc%10[nH]9)cc8[nH]7)CC6)[nH]c5c4)[nH]c3c2)CC1 [DB2P(1)] | 6000 ± 4000 | 66 ± 7 | 57 ± 16 | ~ 100% |
